EP2875811A1, “Use of dobesilate for treating ocular haemorrhages” (priority 2013, dated 2015)

Legend:
[1] = tested on: submacular haemorrhage; assay type: in vivo, human
Experimental: A person with a history of wet age-related macular degeneration (AMD) in both eyes developed a sudden vision decrease in the right eye. The best corrected visual acuity (BCVA) on presentation was of 0.05. […] Haemorrhage seems also result in the RPE detachment at some points (Fig 1D, asterisk). Intravitreal dobesilate was administered in the right eye, using a standard protocol. After approval of our Institution Ethical Committee, the patient signed an informed consent form, which included a comprehensive description of dobesilate and the proposed procedure. Patient received an intravitreal solution of dobesilate (150µl) under sterile conditions in their right eye, following the International Guidelines for intravitreal injections (Aiello LP et al. Retina. 2004; 24 (5 Suppl):S3-S19). Dobesilate was administered as a 12.5% solution of diethylammonium 2.5-dihydroxybenzenesulfonate (etamsylate; dicynone® Sanofi-Aventis. Paris. France).
(§1) • Figure 1 Sequence of fundus photographs (A-D) and spectral-domain optical coherence tomography (SD-OCT) scans (D-F) of a patient with a moderate-sized submacular haemorrhage at baseline (A,D), and one (B,E) and two months (C,F) after a single intravitreal injection of dobesilate. Asterisk in D indicates retinal pigment epithelium (RPE) detachment. • Figure 2 Efficacy of intravitreal dobesilate injection to clear vitreous haemorrhage in a diabetic patient. A and C photographs were taken at presentation, and B and D after 3 days of treatment. […] Note in B the abnormal appearance of the pupil due to luxation of the lens. Arrow indicates paracentesis site.

[2] = tested on: vitreous haemorrhage; assay type: in vivo, human
Experimental: A 68 old-year type 2 diabetic man presented with intense vision loss in their right eye. […] Intraocular pressure was 50mmHg that was reduced to 14mmHg after a paracentesis procedure. After approval of the Institutional Ethics Committee, the patient signed an informed consent form, which included a comprehensive description of dobesilate and the proposed procedure. Patient received an intravitreal solution of dobesilate (150 µl) under sterile conditions, following the International Guidelines for intravitreal injections (Aiello LP et al. Retina. 2004; 24 (5 Suppl):S3-S19) in their right eye. Dobesilate was administered as a 12.5% solution of diethylammonium 2.5-dihydroxybenzenesulfonate (etamsylate, dicynone® Sanofi-Aventis. Paris. France).
as §1, with “Arrow indicates paracentesis site.” left out

[3] = person, right eye, intravitreal 150µl of 12.5% solution, along two months follow-up

O=S(=O)(O)c1cc(O)ccc1O [dobesilate, diethylammonium 2.5-dihydroxybenzenesulfonate]
ocular side effects ([1]; human, in vivo): No ocular side effects were observed | SD-OCT scans: retinal architecture / RPE detachment [1, 3]: progressive normalization of the retinal architecture with disappearance of RPE detachment | haemorrhage signs (fundus) [1, 3]: gradually disappeared | final BCVA (best corrected visual acuity) ([1]; person, right eye, intravitreal 150µl of 12.5% solution, two months follow-up, BCVA on presentation 0.05): 0.50 | Intraocular pressure ([2]; after treatment, pressure had been reduced from 50mmHg to 14mmHg by paracentesis before injection): maintained at normal level | ocular side effects ([2]; human, in vivo): No ocular side effects were observed
